From PubChem BioAssay AID248 (DTP/NCI, 2004)
Where “and” joins values, the source holds several entries; their conditions need not be identical. Identical values can stand only once. Toxic doses and inconclusive results are not listed.

System: L1210 leukemia ip in BDF1 mice, survival T/C
Test: NCI In Vivo Anticancer Drug Screen. Data for tumor model L1210 Leukemia (intraperitoneal) in B6D2F1 (BDF1) mice
Conditions: endpoint: mean survival time, higher = longer survival
Protocol: The antitumor activity of compounds was measured in mice bearing transplantable tumors. Survival or tumor size were measured and the results are expressed as the measurement made in the treated group (T) divided by the measurement made in the vehicle treated control group (C). The tumor model used in this assay is L1210 Leukemia (intraperitoneal) in B6D2F1 (BDF1) mice

[1] = dose: 100.0 mg/kg/injection, schedule: Q01DX009 (ip), vehicle: Klucel (hydroxypropylcellulose) (HPC)
[2] = dose: 200.0 mg/kg/injection, schedule: Q01DX009 (ip), vehicle: Klucel (hydroxypropylcellulose) (HPC)
[3] = dose: 400.0 mg/kg/injection, schedule: Q01DX009 (ip), vehicle: Klucel (hydroxypropylcellulose) (HPC)
[4] = dose: 100.0 mg/kg/injection, schedule: Q04DX003 (ip), vehicle: saline
[5] = dose: 200.0 mg/kg/injection, schedule: Q04DX003 (ip), vehicle: saline
[6] = dose: 400.0 mg/kg/injection, schedule: Q04DX003 (ip), vehicle: saline
[7] = dose: 100.0 mg/kg/injection, schedule: Q04DX003 (ip), vehicle: Klucel (hydroxypropylcellulose) (HPC)
[8] = dose: 200.0 mg/kg/injection, schedule: Q04DX003 (ip), vehicle: Klucel (hydroxypropylcellulose) (HPC)
[9] = dose: 400.0 mg/kg/injection, schedule: Q04DX003 (ip), vehicle: Klucel (hydroxypropylcellulose) (HPC)
[10] = dose: 100.0 mg/kg/injection, schedule: Q04DX002 (ip), vehicle: Klucel (hydroxypropylcellulose) (HPC)
[11] = dose: 200.0 mg/kg/injection, schedule: Q04DX002 (ip), vehicle: Klucel (hydroxypropylcellulose) (HPC)
[12] = dose: 400.0 mg/kg/injection, schedule: Q04DX002 (ip), vehicle: Klucel (hydroxypropylcellulose) (HPC)
[13] = dose: 100.0 mg/kg/injection, schedule: Q04DX003 (ip), vehicle: saline with Tween-80
[14] = dose: 200.0 mg/kg/injection, schedule: Q01DX009 (ip), vehicle: saline with Tween-80
[15] = dose: 400.0 mg/kg/injection, schedule: Q01DX009 (ip), vehicle: saline with Tween-80
[16] = dose: 12.5 mg/kg/injection, schedule: Q04DX003 (ip), vehicle: saline
[17] = dose: 25.0 mg/kg/injection, schedule: Q04DX003 (ip), vehicle: saline
[18] = dose: 50.0 mg/kg/injection, schedule: Q04DX003 (ip), vehicle: saline

## O=C(Nc1ccccc1C(F)(F)F)N(CCO)C1CCCCC1
[1]
  T/C: 100 % of control
[2]
  T/C: 103 % of control
[3]
  T/C: 101 % of control

## O=C(Nc1cccc(C(=O)Nc2ccc(C3=NCCN3)cc2)c1)Nc1cccc(C(=O)Nc2ccc(C3=NCCN3)cc2)c1
dose: 15.0 mg/kg/injection, schedule: Q01DX Z (ip), vehicle: methylcellulose (MC)
  T/C: 94 % of control
dose: 30.0 mg/kg/injection, schedule: Q01DX Z (ip), vehicle: methylcellulose (MC)
  T/C: 105 % of control
dose: 60.0 mg/kg/injection, schedule: Q01DX Z (ip), vehicle: methylcellulose (MC)
  T/C: 100 % of control
dose: 120.0 mg/kg/injection, schedule: Q01DX Z (ip), vehicle: methylcellulose (MC)
  T/C: 102 % of control
dose: 125.0 mg/kg/injection, schedule: Q01DX Z (ip), vehicle: water
  T/C: 93 % of control
dose: 250.0 mg/kg/injection, schedule: Q01DX Z (ip), vehicle: water
  T/C: 102 % of control
dose: 500.0 mg/kg/injection, schedule: Q01DX Z (ip), vehicle: water
  T/C: 101 % of control

## Cc1cc(Cc2cc(C)cc(C(C)(C)C)c2O)c(O)c(Cc2cc(C)cc(C(C)(C)C)c2O)c1
dose: 100.0 mg/kg/injection, schedule: Q01DX009 (ip), vehicle: gum acacia
  T/C: 97 % of control
dose: 100.0 mg/kg/injection, schedule: Q04DX003 (ip), vehicle: gum acacia
  T/C: 91 % of control
dose: 200.0 mg/kg/injection, schedule: Q01DX009 (ip), vehicle: gum acacia
  T/C: 96 % of control
dose: 200.0 mg/kg/injection, schedule: Q04DX003 (ip), vehicle: gum acacia
  T/C: 96 % of control
dose: 400.0 mg/kg/injection, schedule: Q01DX009 (ip), vehicle: gum acacia
  T/C: 94 % of control
dose: 400.0 mg/kg/injection, schedule: Q04DX003 (ip), vehicle: gum acacia
  T/C: 96 % of control

## NC(CCc1cc(O)ccc1O)C(=O)O (configuration not stated)
[4]
  T/C: 105 % of control
[5]
  T/C: 107 % of control
[6]
  T/C: 98 % of control

## Cc1c(C)c(Cl)c(C)c(Cl)c1O
[1]
  T/C: 94 % of control
[7]
  T/C: 98 % of control
[2]
  T/C: 89 % of control
[8]
  T/C: 93 % of control
[3]
  T/C: 91 % of control
[9]
  T/C: 105 % of control

## O=C(O)c1ccc(C(=O)Nc2cccc3ccccc23)c(C(=O)O)c1
[10]
  T/C: 106 % of control
[11]
  T/C: 103 % of control
[12]
  T/C: 103 % of control

## Nc1nc(N)c(CCCOc2ccc(NC(=O)CCCc3ccc(NC(=O)CBr)cc3)cc2)c(N)n1
[7]
  T/C: 102 % of control
[8]
  T/C: 109 % of control
[9]
  T/C: 102 % of control

## Nc1ccccc1C(=O)N/N=C/c1ccc(Cl)cc1Cl
[1]
  T/C: 89 % of control
[10]
  T/C: 95 % of control
[2]
  T/C: 98 % of control
[11]
  T/C: 102 % of control
[12]
  T/C: 104 % of control

## COc1cc(OC)c(NC(=O)Nc2cccc(Cl)c2C)cc1Cl
dose: 12.5 mg/kg/injection, schedule: Q01DX009 (ip), vehicle: saline with Tween-80
  T/C: 97 % of control and 92 % of control
dose: 25.0 mg/kg/injection, schedule: Q01DX009 (ip), vehicle: saline with Tween-80
  T/C: 94 % of control and 95 % of control
dose: 25.0 mg/kg/injection, schedule: Q04DX003 (ip), vehicle: saline with Tween-80
  T/C: 89 % of control
dose: 50.0 mg/kg/injection, schedule: Q01DX009 (ip), vehicle: saline with Tween-80
  T/C: 95 % of control and 87 % of control
dose: 50.0 mg/kg/injection, schedule: Q04DX003 (ip), vehicle: saline with Tween-80
  T/C: 97 % of control
dose: 100.0 mg/kg/injection, schedule: Q04DX002 (ip), vehicle: saline with Tween-80
  T/C: 86 % of control and 91 % of control
[13]
  T/C: 92 % of control
[14]
  T/C: 89 % of control and 91 % of control
dose: 200.0 mg/kg/injection, schedule: Q04DX002 (ip), vehicle: saline with Tween-80
  T/C: 87 % of control and 90 % of control
[15]
  T/C: 96 % of control and 91 % of control
dose: 400.0 mg/kg/injection, schedule: Q04DX002 (ip), vehicle: saline with Tween-80
  T/C: 104 % of control and 91 % of control

## COc1ccc(NP2(=O)OCC(C)([N+](=O)[O-])CO2)cc1 (configuration not stated)
dose: 50.0 mg/kg/injection, schedule: Q01DX001 (ip), vehicle: saline
  T/C: 98 % of control
dose: 100.0 mg/kg/injection, schedule: Q01DX001 (ip), vehicle: saline
  T/C: 102 % of control
dose: 200.0 mg/kg/injection, schedule: Q01DX001 (ip), vehicle: saline
  T/C: 98 % of control
dose: 400.0 mg/kg/injection, schedule: Q01DX001 (ip), vehicle: saline
  T/C: 96 % of control

## CC1CCC(C)C([N+](C)(C)C)C1 (configuration not stated)
[16]
  T/C: 98 % of control
[17]
  T/C: 98 % of control
[18]
  T/C: 95 % of control
dose: 75.0 mg/kg/injection, schedule: Q04DX003 (ip), vehicle: saline
  T/C: 93 % of control

## CCOc1ccc(NC(=O)Nc2ccccc2)cc1
dose: 100.0 mg/kg/injection, schedule: Q01DX009 (ip), vehicle: saline with Tween-80
  T/C: 94 % of control
[13]
  T/C: 96 % of control
[14]
  T/C: 93 % of control
dose: 200.0 mg/kg/injection, schedule: Q04DX003 (ip), vehicle: saline with Tween-80
  T/C: 94 % of control
[15]
  T/C: 93 % of control
dose: 400.0 mg/kg/injection, schedule: Q04DX003 (ip), vehicle: saline with Tween-80
  T/C: 94 % of control

## CCCCCCCCCCCCCCCCS(=O)(=O)N/N=C/c1ccccc1O
dose: 100.0 mg/kg/injection, schedule: Q01DX001 (ip), vehicle: carboxymethylcellulose (CMC)
  T/C: 95 % of control
dose: 200.0 mg/kg/injection, schedule: Q01DX001 (ip), vehicle: carboxymethylcellulose (CMC)
  T/C: 98 % of control

## CCOC(CN)OCC
dose: 100.0 mg/kg/injection, schedule: Q01DX009 (ip), vehicle: saline
  T/C: 114 % of control
[4]
  T/C: 112 % of control
dose: 200.0 mg/kg/injection, schedule: Q01DX009 (ip), vehicle: saline
  T/C: 107 % of control
[5]
  T/C: 102 % of control
dose: 400.0 mg/kg/injection, schedule: Q01DX009 (ip), vehicle: saline
  T/C: 106 % of control
[6]
  T/C: 97 % of control

## CC1(C)OCC(C2OC(C)(C)OC2C(O)c2cn(-c3ccccc3)nn2)O1 (configuration not stated)
dose: 100.0 mg/kg/injection, schedule: Q01DX005 (ip), vehicle: saline
  T/C: 102 % of control
dose: 200.0 mg/kg/injection, schedule: Q01DX005 (ip), vehicle: saline
  T/C: 104 % of control

## Cc1ccccc1C[P+](c1ccccc1)(c1ccccc1)c1ccccc1
dose: 12.5 mg/kg/injection, schedule: Q01DX009 (ip), vehicle: acetone
  T/C: 101 % of control
[16]
  T/C: 96 % of control
[17]
  T/C: 102 % of control
[18]
  T/C: 106 % of control

## CCOP(=O)(OCC)/C(=C\c1ccccc1)C(=O)c1ccccc1
dose: 25.0 mg/kg/injection, schedule: Q04DX003 (ip), vehicle: Klucel (hydroxypropylcellulose) (HPC)
  T/C: 87 % of control
dose: 50.0 mg/kg/injection, schedule: Q04DX003 (ip), vehicle: Klucel (hydroxypropylcellulose) (HPC)
  T/C: 87 % of control
dose: 100.0 mg/kg/injection, schedule: Q01DX001 (ip), vehicle: Klucel (hydroxypropylcellulose) (HPC)
  T/C: 107 % of control
[7]
  T/C: 90 % of control
dose: 200.0 mg/kg/injection, schedule: Q01DX001 (ip), vehicle: Klucel (hydroxypropylcellulose) (HPC)
  T/C: 98 % of control
dose: 400.0 mg/kg/injection, schedule: Q01DX001 (ip), vehicle: Klucel (hydroxypropylcellulose) (HPC)
  T/C: 106 % of control

## O=C(NC(C(=O)SC1=NC=NC2=NC=NC21)C(SC1=NC=NC2=NC=NC21)c1cccnc1)c1ccccc1 (configuration not stated)
dose: 37.5 mg/kg/injection, schedule: Q01DX Z (ip), vehicle: saline
  T/C: 153 % of control
